Test results taken from a melting point compilation (Tetko et al.).

Structure (SMILES) | melting point [°C]
CC(C)N(CCC(=O)O)C(=O)OC(C)(C)C | 65 to 67
NCc1ccccc1CS(=O)(=O)N1CCOCC1 | 90 to 92
Clc1ccc(-n2cccn2)cn1 | 107 to 109
O=C(NCC(F)(F)F)OCC(F)(F)F | 53 to 55
Cc1cc(C(=O)CCl)c(C)n1-c1ccc(OC(F)F)cc1 | 83 to 87
O=c1[nH]c(CNCC2CCCO2)nc2ccccc12 (stereo not drawn) | 128 to 132
O=c1c2cnn(-c3ccccc3)c2nnn1CCl | 179 to 181
C=CCNC(=O)c1cccc(C#N)c1 | 79 to 81
Cc1cc(C=O)c(C)n1C1CC1 | 71 to 75
O=C(O)CSc1ccsc1[N+](=O)[O-] | 196 to 198
CCOC(=O)c1cnn(-c2nccs2)c1N | 104 to 106
CC1Cc2ccccc2N1Cc1ccoc1C(=O)O (stereo not drawn) | 170 to 172
Cc1noc(C2CC2)c1NC(=O)OC(C)(C)C | 108 to 110
O=C(Nc1ccc2c(c1)OCO2)C(Cl)(Cl)Cl | 99 to 101
COC(=O)c1noc(C)c1C(C)=O | 36 to 38
CC(=O)c1csc(C(=O)CCl)c1 | 124 to 126
CC(N)c1ccc(-c2cncnc2)cc1 (stereo not drawn) | 47 to 49
CC(=O)c1ccc(OC2CCCCC2)cc1 | 74 to 76
Cc1ccc(N)c(C)c1O | 102 to 104
O=C(O)/C=C/c1ccc(OCc2cn3ccccc3n2)cc1 | 190 to 192
Fc1ccccc1CNc1ccncc1 | 83 to 85
Cc1ccc2c(CC#N)c[nH]c2c1 | 115 to 117

Structure (SMILES) | melting point [°C]
Nc1ccnn1Cc1ccc(Br)cc1 | 97 to 99
Cc1ccc(Cc2nnc(N)s2)cc1 | 209 to 211
NCc1ccccc1-c1ccc(CN2CCCC2=O)cc1 | 82 to 84
COc1ccc(C(C)=O)cc1CN1CCCCC1 | 54 to 56
Cc1cc(-c2ncc[nH]2)c(=O)[nH]n1 | 254 to 256
O=[N+]([O-])c1ccc2[nH]c(-c3cscn3)nc2c1 | 257 to 259
COC(=O)C(c1ccc(F)cc1)N1CCN(C(=O)OC(C)(C)C)CC1 (stereo not drawn) | 82 to 84
CN(C)C(=O)Cn1ccc(N)n1 | 58 to 60
Cc1cc2ccccc2c(=O)[nH]1 | 199 to 201
Cc1cc(C)c2nc(Cl)cc(C)c2c1 | 128 to 132
O=C(O)Cc1csc(-c2cccc(F)c2)n1 | 124 to 126
CC(=O)N(C)CC(=O)O | 137 to 139
NCc1cccc(N2CCOC2=O)c1 | 93 to 95
CCOC(=O)c1cnc2c(OC)cc(OC)cc2c1Cl | 148 to 150
Cc1cc(C)c([N+](=O)[O-])c(=O)[nH]1 | 179 to 181
NC(=O)c1ccccc1Oc1ncccc1C(=O)O | 253 to 255
O=C(O)c1c2c(nc3ccccc13)C(=Cc1ccccc1Cl)CCC2 | 98 to 100
O=S(=O)(c1ccc2c(c1)NCC2)N1CCCC1 | 181 to 183
O=C(CCCl)NC(=O)NCC(F)(F)F | 145 to 147
C#CCOc1ncccc1C(=O)O | 120 to 122
O=C(O)C1CCCN(C(=O)c2cccc3ccccc23)C1 (stereo not drawn) | 255 to 257
CC(C)(C)OC(=O)N1CCC(OC(=O)c2ccc(N)cc2)CC1 | 147 to 149

Structure (SMILES) | melting point [°C]
Nc1c(F)cccc1-n1cncn1 | 103 to 105
O=C1CCOc2c(Br)cccc21 | 62 to 64
Nc1ccc(F)c(NC(=O)CCN2CCOCC2)c1 | 119 to 121
COc1nc(N2CCNCC2)ncc1Br | 89 to 91
Cc1ccc2[nH]cc(C=O)c2c1 | 142 to 144
CN(C)C1CCN(c2ccc(N)cc2)CC1 | 119 to 121
CC(C)(C)OC(=O)N1C(=O)N(CC#N)C(C)(C)C1=O | 149 to 151
N=c1ccc2sc(N)nc2[nH]1 | 193 to 195
CCc1ccc(N2CCC(=O)CC2)cc1 | 43 to 45
Nc1ccc(N2CCc3ccccc32)cc1C(=O)O | 189 to 191
Cc1c(CCC(=O)O)c(=O)[nH]c2c1c(=O)[nH]n2C | 304 to 306
COc1cc2c(cc1C(=O)CCl)C(=O)CO2 | 176 to 178
N#CC(N)c1ccc(Cl)cc1Cl (stereo not drawn) | 80 to 82
O=C(O)C(O)CCc1ccccc1 (stereo not drawn) | 114 to 117
CC(C)C(Br)C(=O)NC1CCS(=O)(=O)C1 (stereo not drawn) | 139 to 141
CNCc1c(Cl)ncnc1N(C)C | 43 to 45
CC(C)(C)C(=O)N1CCC(=O)CC1 | 94 to 96
O=C(CCn1ccnc1)NC1CCC(C(=O)O)CC1 (stereo not drawn) | 229 to 231
CCN1CCCC1CN=C=S (stereo not drawn) | 43 to 45
Cc1nc(-c2ccc(F)cc2)sc1C(C)O (stereo not drawn) | 113 to 115
CCSc1cc(Br)ccc1C=O | 50 to 52
NC(=O)C1CCCC1 | 173 to 175

Structure (SMILES) | melting point [°C]
O=C1CCS(=O)(=O)c2cc(F)c(F)cc21 | 149 to 151
OC1CCc2c(F)cccc21 (stereo not drawn) | 59 to 61
NCc1ccc(N2CCS(=O)(=O)CC2)cc1 | 97 to 99
COc1ccccc1-n1cnnc1S | 204 to 206
CCc1ccccc1Nc1nc(N)nc(CCl)n1 | 146 to 149
CNC1CCN(c2cc(OC)cc(OC)c2)C1 (stereo not drawn) | 52 to 54
c1ccc(-c2nnco2)nc1 | 224 to 226
Cc1nc2c([nH]1)CCC(C(=O)O)C2 (stereo not drawn) | 229 to 231
N#CCc1ccc(F)c(Br)c1 | 35 to 37
COC(=O)c1ccc2[nH]cc(C3CCNCC3)c2c1 | 169 to 171
Nc1nc(-c2ccsc2)ns1 | 172 to 174
Cc1ccc(C(=O)c2c(N)sc3c2CCC3)cc1F | 177 to 179
O=[N+]([O-])c1ccc(-c2nc(CCl)co2)cc1 | 119 to 121
CCOc1ccc(-c2csc(=O)[nH]2)cc1 | 222 to 224
COC(=O)c1nc(Cc2ccccc2Cl)n2ccccc12 | 131 to 133
Fc1cccc(Nc2nnc(S)s2)c1 | 206 to 208
CCc1nnc(-c2cccc(N)c2)o1 | 88 to 90
CCOC(=O)c1c[nH]cc(C)c1=O | 225 to 227
O=C(O)c1ccc(OCc2cscn2)cc1 | 191 to 193
COc1cccc(/C=C/C(=O)O)c1OC(F)F | 208 to 210
NS(=O)(=O)CC1CCCN1 (stereo not drawn) | 72 to 74
Fc1cccc2c1CN=C1CCCN12 | 71 to 73

Next, values leading:

melting point [°C] | Structure (SMILES)
164 to 166 | CC(=O)Nc1ccc(O)c(S(=O)(=O)Cl)c1
74 to 76 | O=C(NCc1ccco1)c1cccc(CCl)c1
98 to 100 | O=C(NCCO)c1ccc(Br)cn1
239 to 241 | O=C(Nc1cn[nH]c1)c1ccncc1
104 to 106 | O=S(=O)(Cl)c1ccc(F)c2ncccc12
47 to 49 | CC(=O)c1ccc2ccccc2n1
161 to 163 | CCCCN(c1ccccc1)S(=O)(=O)c1cccc(C(=O)O)c1
139 to 141 | COCC(=O)Nc1ccc(O)cc1
213 to 215 | O=C(O)c1cc(Cl)nc(Oc2ccc(Br)cc2)c1
250 to 252 | O=C(O)c1ccc2[nH]c(=O)c(=O)[nH]c2c1
288 to 290 | O=C(O)c1ccc(Cl)c(N2CCCC2=O)c1
107 to 109 | CCOc1ccc(Br)cc1S(=O)(=O)NC
214 to 216 | O=C(O)c1csc(-c2ccc(O)cc2)n1
74 to 76 | CC(NO)c1ccc(F)cc1 (stereo not drawn)
225 to 227 | COC(=O)c1cncc(C(=O)O)c1
103 to 105 | COc1ccc(C)cc1NC(=O)C1CCCN1 (stereo not drawn)
139 to 141 | Cc1cc(S(N)(=O)=O)c(C)s1
143 to 145 | NC(=O)c1cc(F)ccc1N
120 to 122 | CC(Cl)C(=O)Nc1cc([N+](=O)[O-])ccc1Cl (stereo not drawn)
99 to 101 | Cc1cccc(Cl)c1OCC(=O)O
215 to 217 | O=C(O)c1cc2ccccc2cc1I
195 to 197 | COc1cc(OCC(=O)O)ccc1[N+](=O)[O-]
259 to 261 | CN(C)c1cc(C(=O)O)c2ccccc2n1
50 to 52 | CC(C)c1ccc(C=O)cc1[N+](=O)[O-]
253 to 255 | Cc1nn(-c2ccc(F)cc2)c(Cl)c1C(=O)O
146 to 148 | COc1ccccc1C(NC(=O)OC(C)(C)C)C(=O)O (stereo not drawn)
184 to 186 | COc1nc(C(=O)O)cc2ccccc12
179 to 181 | COC(=O)c1c(S)nc2ccccc2c1O

melting point [°C] | Structure (SMILES)
140 to 142 | CN(C)c1ccc([N+](=O)[O-])c(O)c1
139 to 141 | N#Cc1cccc(NC(=O)NC2CC2)c1
160 to 162 | Cc1ccc(NC(=O)C(C)C)cc1N
179 to 181 | CNC(=O)c1cc(Oc2cccc(O)c2C)ccn1
197 to 199 | Nc1ccc2c(c1)S(=O)(=O)CC2
78 to 80 | Cc1cc(OCc2ccc(C(=O)NN)cc2)ccc1Cl
67 to 69 | CC(Oc1cccc(C(C)(C)C)c1)C(=O)O (stereo not drawn)
75 to 77 | Cc1ccc(CCCCC(=O)O)cc1
143 to 145 | Cc1csc(NC(=O)Cc2ccc(N)cc2)n1
249 to 251 | O=C(O)C=Cc1ccc(S(=O)(=O)N2CCOCC2)cc1
134 to 136 | O=C1Nc2ccc(S(=O)(=O)Cl)cc2C1(Cl)Cl
289 to 291 | CC(=O)Nc1cc(S(=O)(=O)Cl)ccc1O
184 to 186 | O=C(O)c1csc(-c2ccccc2)c1
225 to 227 | CN1C(=O)CC(C(=O)O)C1c1ccc(Cl)c(F)c1 (stereo not drawn)
256 to 258 | O=C(O)c1cc2cccc(Br)c2o1
166 to 168 | COc1ccc(CC(=O)O)cc1S(=O)(=O)Cl
121 to 123 | O=C(Cc1cccc(F)c1)c1ccc(Cl)c(Cl)c1
96 to 98 | CC(=O)NCCCc1ccc(C(=O)CCl)cc1
212 to 214 | O=C(O)c1cc(Cl)n[nH]c1=O
129 to 131 | Cc1ccc(Cl)cc1N1CC(C(=O)O)CC1=O (stereo not drawn)
54 to 56 | CCCC(=O)Nc1cccc(CN)c1
58 to 60 | CC(=O)c1ccc2c3c(cccc13)CC2
216 to 218 | NC(=O)CNC(=O)c1ccc(N)cc1
225 to 227 | O=C(O)c1c[nH]c2ccc(F)cc12
93 to 95 | CC(=O)c1cccc(OCC(=O)N(C)C)c1
126 to 128 | CC(CC(=O)O)S(=O)(=O)c1ccc(F)cc1 (stereo not drawn)
149 to 151 | COC(=O)c1ccncc1O
